The series is described as follows: Solubility of compound represented by formula I in different solvents. In kind it is physicochemical. As to conditions: for solubility at 30 min: thermodynamic from solid, read-out: Approximate Solubility. On the procedure: Referring to tests under the General Notices, Volume II, Chinese Pharmacopoeia 2010, excessive compounds represented by formula I which were grinded to fine powder were weighed and transferred in a certain amount of solvent (25° C.±2° C.), and shaken vigorously for 30 s every 5 min. The dissolution of the drug was observed within 30 min. Then the solution was filtered, the initial filtrate was discarded, and the concentration of the successive filtrate was tested. The solubility was calculated.

Each structure is given as a SMILES string. Where two headings read alike, the source gives them in different places.

The source of these data is patent publication US12318385B2, “Pharmaceutical composition comprising PARP inhibitors” (Jiangsu Hengrui Medicine CO., LTD., priority 2018, dated 2025).

In general, solubility refers to the dissolved amount per volume that the medium holds. Regarding `O=C(c1cc(Cc2n[nH]c(=O)c3ccccc23)ccc1F)N1CCn2nc(C(F)(F)F)nc2C1` [Compound represented by formula I], the “Solubility (descriptive term)” value is reported as “slightly soluble” (Acetone), “very slightly soluble” (Anhydrous Ethanol), “slightly soluble” (Tetrahydrofuran) and “practically insoluble” (conventional aqueous solvents). Besides, the solubility at 30 min reads like this: (aqueous buffer, Acetate Buffer pH 4.5, 25° C.±2° C.) 0.85 µg/mL; (aqueous buffer, Phosphate Buffer pH 6.8, 25° C.±2° C.) 0.59 µg/mL; (aqueous with cosolvent or surfactant or cyclodextrin, 5% Polysorbate 80 Aqueous Solution, 25° C.±2° C.) 19.5 µg/mL; (organic solvent or mixture, Acetone, 25° C.±2° C.) 4960 µg/mL; (organic solvent or mixture, Anhydrous Ethanol, 25° C.±2° C.) 458 µg/mL; (organic solvent or mixture, Tetrahydrofuran, 25° C.±2° C.) 8550 µg/mL. Moreover, the solubility at 30 min (simulated gastric fluid, 0.1 mol/L Hydrochloric Acid, 25° C.±2° C.) was 0.78 µg/mL.
